Measured values published in patent US4221794A, “Method of imparting immunomodulating and antiviral activity” (Newport Pharmaceuticals International, Inc., priority 1979, dated 1980).
Counter-ions that a name gives are not always drawn.

Columns and labels:
influenza virus [1] = test: Anti-influenza activity (overall); assay type: cell-based, several strains of A and B sub-types
[2] = test system: human peripheral blood lymphocytes; test: Mitogen (PHA) induced human lymphocyte proliferation; assay type: cell-based; settings: plus = immunostimulating, minus = immunoinhibiting, 0 = neither
influenza virus [3] = test: microbe, parasite or virus in culture; assay type: cell-based, influenza virus Type A/USSR 90 (HeLa cell cultures)
[4] = test system: (Russian) influenza virus; test: Inhibition of influenza virus replication, Russian; assay type: cell-based
mouse lymphocytes = test: Mitogen (Con A) induced mouse lymphocyte (spleen cell) proliferation; assay type: cell-based; settings: for Maximum Percent Change, Mitogen Induced (Con A) Mouse Lymph. Prolif.: plus = immunostimulating, minus = immunoinhibiting, 0 = neither
Source text: (§1) The following three assay procedures are used to evaluate the ability of the test substances to modulate the activity of several classes of cells in the immune system. In these systems it is possible to identify both immunopotentiating activity (evidence by an enhancement of the parameter examined) as well as immunosuppressant activity (evidenced by an inhibition of the parameter examined).
1. Mitogen-Induced Mouse Spleen Cell Assay
Mouse spleen cells contain a population of both B and T lymphocytes which can be stimulated by a number of foreign substances (e.g., plant mitogens such as Con A) to proliferate. This enhanced proliferation is an indication of enhanced cell mediated immunity. The method below describes the system used to evaluate test substances as immunopotentiators.
Concanavalin A (Calbiochem, La Jolla, California), Lot #210073, lyophilized in NaCl, was prepared first as a 1% solution and diluted as a 2×concentration for each dilution (0.5, 1.0, 2.5 μg/ml).
Six to eight week old male Balb/c and C3 H inbred mice were obtained from the following sources: Flow Research Animals, Inc., Dublin, Virginia; Charles River Breeding Laboratories, Wilmington, Massachusetts; Laboratory Supply Company, Indianapolis, Indiana; and Lionel Strong Foundation, San Diego, California.
Three to five mice were sacrificed by cervical dislocation and the spleens aseptically removed. Pooled spleens were minced and teased with sterile forceps; then strained through a double layer of nylon mesh. The cell suspension was washed once with 15 ml of RPMI 1640 supplemented with 5% fetal calf serum and antibiotics. Cells were cultured at a concentration of 10^6 cells/0.1 ml/well in micro-plates. Cultures were incubated in the presence or absence of mitogen in a humidified atmosphere containing 5% CO2 for 48 hours. The test compound was added to cultures at various concentrations concommitant with mitogen.
Proliferation was assayed by the degree of incorporation of 1.0 μCi of [^3 H] thymidine over an 18 hour incubation period. Cultures were harvested by a MASH unit (Otto Hiller Co., Madison, Wisconsin) and thymidine incorporation was assayed by liquid scintillation spectrometry. Cultures were performed in triplicate and data are expressed as means plus or minus the standard error of the experimental means. Drug stimulation indices over control values were also calculated and portrayed graphically.
(§2) Table 4 above presents the results of an evaluation of a number of these subject compounds as potentiators of the immune response. Three different test systems were used. The first involves a measure of the ability of the test compound to enhance the ability of mouse lymphocytes to proliferate in response to a plant mitogen (Con A). The second involves measuring the ability of the test compounds to enhance human lymphocyte proliferation in response to a second plant mitogen (PHA). The third system measures the ability of these test substances to enhance macrophage proliferation in response to a natural lymphokine (MMF, Macrophage Mitogenic Factor).

guinea pig macrophages = test: Lymphokine (MMF) induced guinea pig macrophage proliferation; assay type: cell-based; settings: plus = immunostimulating, minus = immunoinhibiting, 0 = neither
Experimental: 3. The macrophage represents a subpopulation of white blood cells which is an important component of the immune system in control of both cellular and humoral immunity. The assay system described below evaluates the substances studied as potentiators of macrophage function.
Phytohemagglutinin (PHA) (HA-17) was purchased from Burroughs Wellcome. A preparation containing Macrophage Mitogen Factor (MMF) and Macrophage Activating Factor (MAF) was prepared from antigen-stimulated immune lymph node lymphocytes (guinea pig) as previously described by Hadden et al, Nature 257, 483-485 (1975). […] The active fraction was employed in both the proliferation and activation assays.
Ficoll-hypaque purified human peripheral blood lymphocytes were prepared and PHA-induced lymphocyte proliferation was assayed by the incorporation of tritiated thymidine as described in Hadden et al., Cell. Immunol. 20, 98-103 (1975). Each compound was analyzed in the presence of suboptimal, optimal and supraoptimal concentrations of PHA (0.001, 0.01, 0.1 units/ml respectively). Paraffin oil-induced guinea pig peritoneal macrophages were prepared and incubated as monolayer culture (>98% pure macrophages). Lymphokine (MMF)-induced proliferation was assayed by the incorporation of tritiated thymidine at 3 and 5 days of culture as described, Hadden et al, Nature 257, 483-485 (1975). Lymphokine (MAF)-induced macrophage activation to kill Listeria monocytogenes following 5 days of culture in the presence or absence of MAF was performed during a 6 hour period as described in Hadden and England, Immunopharmacology, pages 87-100 (Plenum Press, 1977). Phagocytosis was quantitated during a 20-minute exposure to Listeria monocytogenes by counting the number of macrophages containing bacteria and the number of bacteria per phagocytic cell on gram stained monolayers in Labtek chambers. Intracellular killing of bacteria was evaluated by counting the number of cells containing bacteria and the number of bacteria/cell 6 hours after the initial 20 minute exposure. Parallel experiments in which macrophages were lysed and intracellular bacteria were cultured confirm the validity of bacterial activity determined by this manner in this system. The drugs were employed in each of the three systems over serial log concentration range in triplicate in the presence and absence of mitogen or lymphokine. Each type of experiment was performed at least three times. Previous experiments indicate a parallelism of response to pharmacologic modulation in the proliferation and achivation assays.
as §2

[5] = test system: Influenza A Swine 1976 (Hlsw -N1); assay type: cell-based; settings: listed as 15418
immune response = test: Immunomodulating activity (overall); assay type: cell-based
Source text: as §1, §2

L-1210 leukemic cells = test: Anti-leukemic activity, inhibition of L-1210 growth; assay type: cell-based, mouse; settings: 96 hours
Experimental: Anti-Leukemic Activity (Inhibition of L-1210 Growth)
Leukemic cells isolated from mice bearing the L-1210 tumor are cultured in vitro and their growth can be measured by counting the number of cells in the culture over a period of time. The incorporation of a test substance into the media will prevent the growth of the leukemic cells, an indication of an effective anti-leukemic agent.
I50 (concentration of drug inhibiting growth of L-1210) by % for the tested compounds was as follows:
To Measure Inhibition of Leukemic Cell (L-1210) Growth
Check to see that there is adequate cell growth in the stock cultures. Use cells 48-72 hours after transfers are done.
Weigh out the drugs at 50 times the desired final concentration and made serial dilutions.
Make up the final medium using 500 mls McCoy's 5A medium, 15% fetal calf serum, 5 mls penicillin-streptomycin solution, and 5 mls antibiotic-antimycotic solution and let it stand at room temperature.
Using sterile technique, add 0.1 ml of the drug dilutions to each tube.
Add an appropriate quantity of cells to the prepared medium. After mixing, remove a 0.5 ml sample, place it in a vial containing […] of saline, and count it on the Coulter Counter. Multiply the count by 40 to compensate for the 40 fold dilution (0.5 ml into […] and record the inoculum.
Add 5 mls of cell suspension to each tube. Swirl the bottle every 4 tubes to insure a more uniform distribution of cells.
Tighten the caps and place in the CO2 incubator at 36°-38° for 96 hours.
After 96 hours remove the tubes from the incubator and count the contents of each on the Coulter Counter. Multiply all counts by 40 and average the four counts for each drug dilution. If the count is less than the inoculum, record 100% inhibition. If the count is greater than the average of the eight control counts, record 0% inhibition. For all other counts use the following formula: [formula] 100%-% servival=inhibition of growth due to treatment.

[6] = 1.0-10 (unit not printed), listed as 15418

Structure (SMILES): CCCCCC[C@H]([C@H](C)O)n1cnc2c(N)ncnc21 (relative stereo) [NPT 15426, ERYTHRO-9-(2-HYDROXY-3-NONYL)-ADENINE. HCl]
- anti-influenza activity (in words) (influenza virus [1]; compound by itself): significant anti-influenza activity
- Maximum Percent Change, Mitogen Induced (PHA) Human Lymph. Prolif. ([2]; 1.0-10 (unit not given)): -41%
- Maximum Percent Change, Mitogen Induced (PHA) Human Lymph. Prolif. ([2]; .01-1.0 (unit not given)): 6%
- inhibition at 10 µg/mL (influenza virus [3]; unidentified influenza virus, read-out: % Inhibition of Hemadsorption Foci, Test Compound Conc. <10 μg/ml): 50%
- inhibition at 100 µg/mL (influenza virus [3]; unidentified influenza virus, read-out: % Inhibition of Hemadsorption Foci, Test Compound Conc. >100 μg/ml): 100%
- % Inhibition ([4]; 0.1-1.0 μg/ml): 20-30%
- % Inhibition ([4]; 1.0-10 μg/ml): 30-50%
- % Inhibition ([4]; 10-100 μg/ml): 50-70%
- % Inhibition ([4]; >100 μg/ml): 50-70%
- % Stimulation, Mitogen Induced Murine Lymphocyte Proliferation (mouse lymphocytes; 01-1.0 μg/ml): 0%
- % Stimulation, Mitogen Induced Murine Lymphocyte Proliferation (mouse lymphocytes; 1.0-10 μg/ml): 0%
- Maximum Percent Change, Mitogen Induced (Con A) Mouse Lymph. Prolif. (mouse lymphocytes; 1.0-10 (unit not given)): -85%
- % Stimulation, Mitogen Induced Murine Lymphocyte Proliferation (mouse lymphocytes; 10-100 μg/ml): 0%
- Maximum Percent Change, Mitogen Induced (Con A) Mouse Lymph. Prolif. (mouse lymphocytes; 10-100 (unit not given)): -91%
- Maximum Percent Change, Mitogen Induced (Con A) Mouse Lymph. Prolif. (mouse lymphocytes; .01-1.0 (unit not given)): -50%

Structure (SMILES): CCCCCCC(CO)n1cnc2c(=O)[nH]cnc21 (stereo not shown) [NPT 15418]
- potentiation of anti-influenza activity by DIP.PAcBA salt (influenza virus [1]): does potentiate the anti-influenza activity and Yes
- inhibit the replication of different strains of influenza virus (number of strains) (influenza virus [1]; concentrations ranging from 1-150 μg/ml): at least 4 different strains
- Maximum Percent Change, Lymphokine Induced (MMF) Guinea Pig Mac. Prolif. (guinea pig macrophages; [6]): 80%
- Maximum Percent Change, Lymphokine Induced (MMF) Guinea Pig Mac. Prolif. (guinea pig macrophages; .01-1.0 (unit not given)): 12%
- % Inhibition of Hemadsorption Foci (influenza virus [3]; Test Compound Conc. <10 μg/ml): 16%
- % Inhibition of Hemadsorption Foci (influenza virus [3]; Test Compound Conc. >100 μg/ml): 52%
- % Inhibition [5]: > 70%
- potentiation of the immune response (in words) (immune response): potentiation of the immune response has been observed
- Potentiation of immunopotentiation by DIP.PAcBA salt (immune response; salt compared with parent compound): Yes
- % Stimulation, Mitogen Induced Murine Lymphocyte Proliferation (mouse lymphocytes; 01-1.0 μg/ml, listed as 15418): 20-30%
- % Stimulation, Mitogen Induced Murine Lymphocyte Proliferation (mouse lymphocytes; 1.0-10 μg/ml, listed as 15418): > 50%
- Maximum Percent Change, Mitogen Induced (Con A) Mouse Lymph. Prolif. (mouse lymphocytes; [6]): 73%
- % Stimulation, Mitogen Induced Murine Lymphocyte Proliferation (mouse lymphocytes; 10-100 μg/ml, listed as 15418): 20-30%
- Maximum Percent Change, Mitogen Induced (Con A) Mouse Lymph. Prolif. (mouse lymphocytes; 10-100 (unit not printed), listed as 15418): 26%
- Maximum Percent Change, Mitogen Induced (Con A) Mouse Lymph. Prolif. (mouse lymphocytes; .01-1.0 (unit not printed), listed as 15418): 41%
- I50 (concentration of drug inhibiting growth of L-1210) (L-1210 leukemic cells): 70 micrograms/ml
